# Results taken from ChEMBL document CHEMBL1140175, “Synthesis and evaluation of novel boron-containing complexes of potential use for the selective treatment of malignant melanoma” (J Med Chem, 2008).
# Active and inactive are the calls of the source. No cut-off for these calls is given here.
# How the values were obtained:
# [1] = target: T1, Tyrosinase (Agaricus bisporus) (UniProt O42713); test: Binding affinity to mushroom tyrosinase assessed as […]
# T1 sequence (whole entry): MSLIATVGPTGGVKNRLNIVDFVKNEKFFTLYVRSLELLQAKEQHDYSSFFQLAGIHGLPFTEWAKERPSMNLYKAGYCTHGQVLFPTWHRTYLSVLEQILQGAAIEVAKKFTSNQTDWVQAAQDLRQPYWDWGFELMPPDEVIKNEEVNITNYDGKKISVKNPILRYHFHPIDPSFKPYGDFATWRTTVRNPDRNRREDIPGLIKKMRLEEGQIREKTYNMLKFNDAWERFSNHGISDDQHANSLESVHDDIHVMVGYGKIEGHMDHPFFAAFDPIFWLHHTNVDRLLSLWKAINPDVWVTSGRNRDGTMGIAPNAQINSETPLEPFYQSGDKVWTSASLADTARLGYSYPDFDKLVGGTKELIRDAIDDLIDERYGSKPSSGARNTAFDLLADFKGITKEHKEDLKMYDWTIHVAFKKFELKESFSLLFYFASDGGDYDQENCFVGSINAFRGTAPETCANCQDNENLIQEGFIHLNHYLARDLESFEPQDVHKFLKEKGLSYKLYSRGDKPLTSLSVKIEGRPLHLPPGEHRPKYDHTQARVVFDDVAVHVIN
# [2] = Cellular uptake in human SK-MEL-23 cells assessed as boron content at 50 uM after 2 hrs relative to control; type: ADME, cell-based
# [3] = Cellular uptake in human SK-MEL-23 cells assessed as boron content at 50 uM after 6 hrs relative to control; type: ADME, cell-based
# [4] = Cellular uptake in human SK-MEL-23 cells assessed as boron content at 50 uM relative to control; type: ADME, cell-based
# [5] = Cytotoxicity against human SK-MEL-23 cells assessed as LDH release up to 100 uM after 6 hrs by colorimetric assay; type: functional
# MCF7 = test: Cytotoxicity against human MCF7 cells assessed as LDH release up to 100 uM after 6 hrs by colorimetric assay; type: functional
Activity [1],Activity [2] [%],Activity [3] [%],Activity [4],SMILES,Activity [5] [%],Activity (MCF7) [%]
inactive,–,–,–,O=C1O[B-]2([NH2+][C@H]1Cc1c[nH]c3ccc(O)cc13)C1CCCC2CCC1 (some centres undefined),–,–
inactive,–,–,–,O=C1O[B-]2([NH2+][C@H]1Cc1ccccc1)C1CCCC2CCC1 (some centres undefined),–,–
Active,50,> 50,Not Active,O=C1O[B-]2([NH2+][C@H]1Cc1ccc(O)cc1)C1CCCC2CCC1 (some centres undefined),<5,<5
Active,–,–,–,O=C1O[B-]2([NH2+][C@H]1Cc1ccc(O)c(O)c1)C1CCCC2CCC1 (some centres undefined),–,–
